Laboratory results published in patent US20220274983A1, “JAK KINASE INHIBITOR AND USE THEREOF” (JIANGSU CAREPHAR PHARMACEUTICAL CO., LTD., priority 2019, published 2022).
Blank lines part the entries; values can stand above or below the molecule they belong to.

How the values were obtained:
[1] = molecular target: JAK1 (Homo sapiens, UniProt P23458); assay: JAK kinase inhibitory activity, HTRF biochemical assay
Procedure: (§1) The compounds of the above embodiments were applied to the detection and screening of JAK kinase inhibitory activity.
(§2) A corresponding volume of DMSO was added to each well of a first 96-well plate. 20-30 μL of 100-200 μM stock solution of different test compounds were added to each well. The mixture was shaken and mixed for 3 min. All of the compounds were subjected to 3× serial dilution. 60-80 μL Kinase buffer was added to each well of a second 96-well plate, and 1-2 μL of the solution taken from each well of the first 96-well plate was added to the corresponding well of the second 96-well plate. The mixture was shaken and mixed for 3 min. 5 μL of compound dilution taken from each well of the second compound dilution plate was transferred to the corresponding well of a 384-well test plate. 1-2 μL TK Substrate-biotin was added to each well of the test plate. 1-2 μL of enzyme mixture was added to each well. At the same time, a blank well without enzyme was set. 1-2 μL of ATP solution was added to each well, the plate was sealed and reacted at room temperature. The reaction time was as follows: JAK1: 2 h, JAK2: 30 min, JAK3: 30 min, and TYK2: 50 min. 3-5 μL of Streptavidin-XL665 and 3-5 μL of TK Antibody-cryptate were added to each well, the plate was sealed and allowed to stand at room temperature for 30 min to complete the reaction.
(§3) The percentage of inhibition was calculated based on the following formula:
(§4) Inhibition %=[(Ratiomax−Ratiocompound)/(Ratiomax−Ratiomin)]×100%
(§5) Ratiocompound is the HTRF ratio at a given compound concentration, Ratiomin is the HTRF ratio added to the blank well, and Ratiomax is the HTRF ratio without adding the compound. GraphPad Prism 5.0 software was used to plot a sigmoid dose-inhibition rate curve with a non-linear regression model and calculate the IC50 value.

[2] = molecular target: JAK2 (Homo sapiens, UniProt O60674); assay: as above
Procedure: as §1, §2, §3, §4, §5

[3] = Body weight of CIA rats; conditions: 2 mg/kg oral gavage once daily for 2 w
Procedure: (§10) Lewis rats (female, 10-12 weeks old) were obtained from Beijing Vital River Laboratory Animal Technology Co., Ltd. The rats were on a light and dark alternation for 12 h, and the environment was kept at a temperature of 23±2° C. and a humidity of 40-70%.
(§11) Type II collagen solution (2 mg/mL) was prepared with 0.05 M acetic acid solution to allow to be fully dissolved, and placed overnight in the dark at 4° C. During the test, 2 mg/mL type II collagen (C II) solution and 4 mg/mL complete Freund's adjuvant (CFA) solution were mixed in equal volumes under ice bath conditions to fully emulsify. On day 0, an emulsion prepared by mixing equal volumes of C II (2 mg/mL) and CFA (4 mg/mL) was injected intracutaneously into the base of the tail of experimental rats for primary immunization, and on day 7, secondary booster immunization was performed.
(§12) The therapeutic effect of the test compound was tested in a rat CIA model. The rats were randomly divided into groups with 8 animals in each group. All animals were immunized on day 0 and boosted on day 7.
(§13) Therefore, the differences in body weight and foot volume after the onset of arthritis compared with the negative group, respectively, can be used to evaluate the therapeutic effect in the rat model. The experimental data were expressed as Mean±SEM; the data between the two groups was tested by unpaired t-test and p<0.05 was considered as a significant difference.

[4] = system: rat CIA model; assay: Arthritis index (AI) of extremities in rat CIA model; conditions: CIA rats, 2 mg/kg oral gavage once daily for 2 w, score 0-16;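 note: rats immunized with type II collagen plus complete Freund's adjuvant on day 0, boosted day 7, groups of 8, each paw graded 0-4 for swelling or redness, higher means worse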
Procedure: as §10, §11, §12
Foot volume was scored for the swelling of four toes at the same time, the score for each foot was 0-4, and the highest score for each rat was 16. 0—no swelling, normal appearance; 1—mild swelling or redness of the ankle joint, wrist joint or finger joint; 2—moderate swelling or redness of the ankle joint, wrist joint or finger joint; 3—severe swelling or redness of the ankle joint, wrist joint or finger joint; 4—very severe swelling or redness of the ankle joint, wrist joint or finger joint.

[5] = system: rat CIA model; assay: Hindfoot foot volume in rat CIA model; format: in vivo, Lewis rats; conditions: CIA rats, hindfoot, 2 mg/kg oral gavage once daily for 2 w
Procedure: as §10, §11, §12, §13

[6] = system: BaF3 cells; assay: Proliferation inhibition based on BaF3 cells (IL-3 medium, CTG); format: cell-based; conditions: Mus musculus, medium containing IL-3, read-out: IC50 (uM), proliferation inhibitory activity on BaF3 cells
Procedure: 1. Cell plating: cultured cells were collected with RPMI1640+10% FBS (containing IL-3) medium and counted for viable cells with Vi-Cell XR cell counter. The cell suspension was adjusted to an appropriate concentration with RPMI1640+10% FBS (containing IL-3) medium and then added to a 96-well cell culture plate. A certain amount of cell suspension was added to each well of the 96-well cell culture plate. The cells were cultured in corresponding incubators.
(§6) 2. Drug treatment: a series of test compound concentration (work solution-1) was prepared using DMSO with 3× gradient dilution, and then it was subjected to fold dilution with RPMI1640+10% FBS (containing IL-3) to obtain a work solution-2; Cisplatin's work solution-2 was prepared with RPMI1640+10% FBS (containing IL-3), and then 1-10 μL solution taken from the work solution-2 was added to the prepared cell wells containing medium. The cells were cultured in the corresponding incubators. An appropriate CTG solution was added to each well.
(§7) Cell Survival Rate Calculation
(§8) T is the luminescence reading of a drug treatment group, and C is the average luminescence reading of a solvent control group.

[7] = system: Hela cells; assay: Proliferation inhibition based on Hela cells (OSM stimulation, CTG); format: cell-based; conditions: Homo sapiens, OSM stimulation, read-out: IC50 (uM), proliferation inhibitory activity on Hela cells
Procedure: (§9) 1. Cell plating: cultured cells were collected and counted for viable cells with Vi-Cell XR cell counter. The cell suspension was adjusted to an appropriate concentration with the medium and then added to a 96-well cell culture plate. 50 μL-100 μL of the cell suspension was added to each well of the 96-well cell culture plate. The cell plating density depended on the growth rate of the cells. The cells were cultured in corresponding incubators.
2. Drug Treatment and OSM Stimulation
Firstly, a series of test compound concentration (work solution-1) was prepared using DMSO with 3× gradient dilution, and then it was subjected to fold dilution with RPMI1640+10% FBS to obtain a work solution-2; Cisplatin's work solution-2 was prepared with RPMI1640+10% FBS, and then 1-10 μL solution taken from the work solution-2 was added to the prepared cell wells containing medium. After incubation, 1-10 μL of OSM medium was added to each well and continued to culture. An appropriate CTG solution was added to each well. The mixture was shaken and mixed for 1-5 min and then a luminescence signal was determined with an Envision2104 plate reader.
as §7, §8

[8] = system: THP1 cells; assay: Proliferation inhibition based on THP1 cells (IL-4 stimulation, CTG); format: cell-based; conditions: Homo sapiens, THP-1, read-out: IC50 (uM), proliferation inhibitory activity on THP1 cells
Procedure: as §9, with “80” for “50 μL-100”
as §6, with “treatment and IL-4 stimulation: firstly,” for “treatment:”, “FBS” for “FBS (containing IL-3)”, “FBS,” for “FBS (containing IL-3),”, “incubators. After incubation, 1-10 μL of IL-4 medium was added to each well and continued to culture.” for “incubators.”
Cell Survial Rate Calculation
as §8

Sequence of JAK1 (P23458 whole entry, species assumed): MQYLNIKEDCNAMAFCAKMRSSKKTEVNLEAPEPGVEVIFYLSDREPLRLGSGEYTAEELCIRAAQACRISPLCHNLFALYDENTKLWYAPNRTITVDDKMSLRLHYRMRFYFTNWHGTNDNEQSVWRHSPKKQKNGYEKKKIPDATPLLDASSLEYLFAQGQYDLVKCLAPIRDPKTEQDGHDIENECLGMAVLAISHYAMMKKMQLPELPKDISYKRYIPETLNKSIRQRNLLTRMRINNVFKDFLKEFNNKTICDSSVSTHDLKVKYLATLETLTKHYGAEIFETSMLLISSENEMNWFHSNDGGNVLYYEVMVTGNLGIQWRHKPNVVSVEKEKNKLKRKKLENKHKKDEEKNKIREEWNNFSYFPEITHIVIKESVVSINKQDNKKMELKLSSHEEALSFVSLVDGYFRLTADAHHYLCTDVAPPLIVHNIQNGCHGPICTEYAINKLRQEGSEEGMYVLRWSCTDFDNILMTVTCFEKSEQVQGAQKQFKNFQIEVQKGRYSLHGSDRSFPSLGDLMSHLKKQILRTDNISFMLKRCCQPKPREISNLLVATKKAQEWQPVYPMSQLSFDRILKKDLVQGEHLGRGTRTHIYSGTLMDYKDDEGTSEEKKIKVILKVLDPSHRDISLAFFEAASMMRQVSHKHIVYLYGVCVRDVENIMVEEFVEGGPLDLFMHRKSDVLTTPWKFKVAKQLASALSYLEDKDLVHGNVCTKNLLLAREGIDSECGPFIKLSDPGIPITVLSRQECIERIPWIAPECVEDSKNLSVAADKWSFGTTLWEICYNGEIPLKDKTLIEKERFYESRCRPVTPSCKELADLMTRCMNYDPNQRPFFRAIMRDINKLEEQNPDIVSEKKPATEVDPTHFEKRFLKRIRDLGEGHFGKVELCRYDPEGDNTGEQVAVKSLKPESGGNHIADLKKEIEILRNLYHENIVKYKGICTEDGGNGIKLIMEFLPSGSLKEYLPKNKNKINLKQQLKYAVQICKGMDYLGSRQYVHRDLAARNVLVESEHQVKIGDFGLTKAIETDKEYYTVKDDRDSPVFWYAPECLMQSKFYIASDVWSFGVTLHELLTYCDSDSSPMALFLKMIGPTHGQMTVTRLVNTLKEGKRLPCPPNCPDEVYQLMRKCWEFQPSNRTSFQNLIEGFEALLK
Sequence of JAK2 (O60674 whole entry, species assumed): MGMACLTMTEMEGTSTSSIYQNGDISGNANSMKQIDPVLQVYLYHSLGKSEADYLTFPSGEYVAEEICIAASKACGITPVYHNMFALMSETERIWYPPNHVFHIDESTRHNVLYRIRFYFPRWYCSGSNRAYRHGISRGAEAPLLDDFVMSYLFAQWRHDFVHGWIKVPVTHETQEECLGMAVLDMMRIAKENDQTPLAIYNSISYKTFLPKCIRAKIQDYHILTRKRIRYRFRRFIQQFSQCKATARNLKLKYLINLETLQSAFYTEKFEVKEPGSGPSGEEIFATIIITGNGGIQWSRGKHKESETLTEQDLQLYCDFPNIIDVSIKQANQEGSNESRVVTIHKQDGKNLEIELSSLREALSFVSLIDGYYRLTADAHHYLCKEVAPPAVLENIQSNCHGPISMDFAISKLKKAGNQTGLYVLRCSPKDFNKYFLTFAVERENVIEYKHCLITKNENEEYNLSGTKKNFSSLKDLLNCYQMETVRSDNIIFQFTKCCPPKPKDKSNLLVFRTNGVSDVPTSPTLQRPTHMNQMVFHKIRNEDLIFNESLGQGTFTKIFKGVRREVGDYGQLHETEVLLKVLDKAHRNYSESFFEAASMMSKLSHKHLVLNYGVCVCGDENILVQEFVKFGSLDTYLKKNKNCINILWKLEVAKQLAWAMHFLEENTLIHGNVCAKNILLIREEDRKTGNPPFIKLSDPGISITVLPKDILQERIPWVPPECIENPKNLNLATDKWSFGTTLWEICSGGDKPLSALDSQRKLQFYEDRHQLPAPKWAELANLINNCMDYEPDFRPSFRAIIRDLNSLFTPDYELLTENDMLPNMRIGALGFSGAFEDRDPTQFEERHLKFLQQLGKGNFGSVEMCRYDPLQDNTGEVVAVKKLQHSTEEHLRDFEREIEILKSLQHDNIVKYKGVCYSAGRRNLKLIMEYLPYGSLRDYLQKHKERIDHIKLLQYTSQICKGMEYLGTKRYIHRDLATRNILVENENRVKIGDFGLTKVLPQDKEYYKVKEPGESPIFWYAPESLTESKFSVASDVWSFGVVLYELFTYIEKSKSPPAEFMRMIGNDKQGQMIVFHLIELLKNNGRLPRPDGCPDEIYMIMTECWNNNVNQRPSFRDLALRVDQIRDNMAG

Compound: O=C(Nc1nc2cccc(-c3ccc(COCCc4cn[nH]c4)s3)n2n1)C1CC1 [EXP-16, N-[5-[5-[2-(1H-pyrazol-4-yl)-ethoxymethyl]-2-thienyl]-[1,2,4]triazolo[1,5-a]pyridin-2-yl]cylopropanecarboxamide]
IC50 [1]: > 500 nM

Compound: O=C(Nc1nc2cccc(-c3ccc(CN4CCS(=O)(=O)CC4)s3)n2n1)[C@H]1C[C@H]1C(F)(F)F [EXP-8]
IC50 [2]: > 500 nM
IC50 [1]: > 500 nM

Compound: CC[C@@H]1CN(C(=O)NCC(F)(F)F)C[C@@H]1c1cnc2cnc3[nH]ccc3n12 [Upadacitinib, upadacitinib, reference compound]
Body weight (g)/Day ([3]; day 0): 172.3 ± 1.8 g
Body weight (g)/Day ([3]; day 8): 170.4 ± 2.1 g
Body weight (g)/Day ([3]; day 11): 169.4 ± 2.8 g
Body weight (g)/Day ([3]; day 14): 170 ± 2.2 g
Body weight (g)/Day ([3]; day 17): 170.8 ± 3.3 g
Body weight (g)/Day ([3]; day 21): 168.6 ± 2.9 g
Body weight (g)/Day ([3]; day 24): 165.9 ± 2.9 g
Body weight (g)/Day ([3]; day 28): 170.5 ± 3.1 g
Arthritis index/Day ([4]; day 0): 0 ± 0
Arthritis index/Day ([4]; day 8): 0 ± 0
Arthritis index/Day ([4]; day 11): 0.63 ± 0.38
Arthritis index/Day ([4]; day 14): 3.50 ± 0.73
Arthritis index/Day ([4]; day 17): 5.50 ± 1.00
Arthritis index/Day ([4]; day 21): 9.00 ± 1.07
Arthritis index/Day ([4]; day 24): 9.38 ± 0.71
Foot volume (ml)/Day ([5]; day 0): 2.611 ± 0.022 mL
Foot volume (ml)/Day ([5]; day 8): 2.599 ± 0.020 mL
Foot volume (ml)/Day ([5]; day 11): 2.738 ± 0.110 mL
Foot volume (ml)/Day ([5]; day 14): 3.675 ± 0.314 mL
Foot volume (ml)/Day ([5]; day 17): 4.126 ± 0.301 mL
Foot volume (ml)/Day ([5]; day 21): 4.591 mL
Foot volume (ml)/Day ([5]; day 24): 4.403 mL
Foot volume (ml)/Day ([5]; day 28): 3.990 mL

Compound: O=C(Nc1nc2cccc(-c3ccc(CN4CCC(C(F)(F)F)CC4)s3)n2n1)[C@H]1C[C@@H]1F [EXP-11]
IC50 [2]: 50 to 500 nM
IC50 [1]: 50 to 500 nM

Compound: O=C(Nc1nc2cccc(-c3cnc(CN4CCS(=O)(=O)CC4)s3)n2n1)C1CC1 [EXP-4, N-[5-[2-[(1,1-dioxo-1,4-thiazine-4-)methyl]thiazol-5-]-[1,2,4]triazolo[1,5-a]pyridine-2-]cyclopropylcarboxamide]
IC50 [1]: > 500 nM
IC50 [6]: 5 to 30 µM
IC50 [7]: 5 to 30 µM
IC50 [8]: 5 to 30 µM

Compound: O=C(NCCc1nccs1)c1ccc(-c2cccc3nc(NC(=O)C4CC4)nn23)s1 [EXP-17, 5-[2-[2-thiazole-2-ethyl]carboxamido]-thiophene-[1,2,4]triazolo[1,5-a]pyridine-2-cyclopropanecarboxamide]
IC50 [1]: > 500 nM

Compound: O=C(Nc1nc2cccc(-c3ccc(CN4CCS(=O)(=O)CC4)s3)n2n1)[C@@H]1C[C@H]1C(F)(F)F [EXP-9]
IC50 [2]: 50 to 500 nM
IC50 [1]: 50 to 500 nM

Compound: O=C(Nc1nc2cccc(-c3ccc(CN4CCS(=O)(=O)CC4)s3)n2n1)[C@H]1C[C@H]1F (relative stereo) [EXP-5, N-[5-[4-[(1,1-dioxothiomorpholine)methyl]thienyl]-[1,2,4]triazolo[1,5-a]pyridin-2-yl]-cis-2-fluoro-cyclopropanecarboxamide]
IC50 [2]: 50 to 500 nM
IC50 [1]: 50 to 500 nM
IC50 [6]: < 5 µM
IC50 [7]: 5 to 30 µM
IC50 [8]: < 5 µM

Compound: Cc1cc(-c2cccc3nc(NC(=O)C4CC4)nn23)sc1CN1CCC(F)(F)CC1 [EXP-13]
IC50 [2]: 30 to 50 nM
IC50 [1]: 30 to 50 nM

Compound: O=C(Nc1nc2cccc(-c3ccc(CN4CCC(OC(F)(F)F)CC4)s3)n2n1)[C@H]1C[C@@H]1F (relative stereo) [EXP-19]
IC50 [1]: > 500 nM

Compound: O=C(Nc1nc2cccc(-c3nnc(CN4CCS(=O)(=O)CC4)s3)n2n1)C1CC1 [EXP-14, N-[5-[5-[(1,1-dioxo-1,4-thiazin-4-)methyl]-1,3,4-thiadiazol-2-]-[1,2,4]triazolo[1,5-a]pyridine-2-]cyclopropylcarboxamide]
IC50 [2]: > 500 nM
IC50 [1]: > 500 nM

Other lines, results leading:

IC50 [2]: 50 to 500 nM
IC50 [1]: 50 to 500 nM
Compound: O=C(NCCc1nccs1)c1cc(-c2cccc3nc(NC(=O)C4CC4)nn23)cs1 [EXP-18]

IC50 [1]: > 500 nM
Compound: O=C(Nc1nc2cccc(-c3ccc(CN4CCS(=O)(=O)CC4)s3)n2n1)C1(F)CC1 [EXP-10]

IC50 [1]: 50 to 500 nM
Compound: O=C(Nc1nc2cccc(-c3ccc(CN4CCC(F)(F)CC4)s3)n2n1)[C@H]1C[C@@H]1F (relative stereo) [EXP-12, trans-N-[5-[5-[(4,4-difluoro-1-piperidinyl)methyl]-2-thienyl]-[1,2,4]triazolo[1,5-a]pyridin-2-yl]-2-fluorocyclopropanecarboxamide]

IC50 [2]: 50 to 500 nM
IC50 [1]: 50 to 500 nM
IC50 [6]: < 5 µM
IC50 [7]: < 5 µM
IC50 [8]: < 5 µM
Compound: Cc1cc(-c2cccc3nc(NC(=O)C4CC4)nn23)sc1CN1CCS(=O)(=O)CC1 [EXP-2]

IC50 [2]: > 500 nM
IC50 [1]: > 500 nM
Compound: CC1(C(=O)Nc2nc3cccc(-c4ccc(CN5CCS(=O)(=O)CC5)s4)n3n2)CC1(F)F (stereo not drawn) [EXP-7]

IC50 [1]: > 500 nM
Compound: O=C(Nc1nc2cccc(-c3nnc(CN4CCS(=O)(=O)CC4)o3)n2n1)C1CC1 [EXP-15, N-[5-[5-[(1,1-dioxo-1,4-thiazin-4-)methyl]-1,3,4-oxadiazole-2-]-[1,2,4]triazolo[1,5-a]pyridine-2-]cyclopropylcarboxamide]
